Test results as given in PMC8234734, “Pharmacokinetics and Molecular Modeling Indicate nAChRα4-Derived Peptide HAEE Goes through the Blood–Brain Barrier” (Biomolecules, 2021).

What was measured:
[1] = In vitro stability assay of HAEE in human plasma; assay type: in vitro ADME; conditions: 1 mM in PBS, 20 µL diluted in 80 µL fresh human plasma, 37 °C, 24 h, MeOH precipitation, RP-HPLC UV 205 nm; data not shown
Procedure: An in vitro assay of the unlabeled peptide stability was performed as described in [19]. Briefly, HAEE was prepared as a 1 mM solution in phosphate-buffered saline and 20 µL of the peptide solution was diluted in 80 µL of human plasma (freshly taken). The solution was incubated at 37 °C for different times, and the reaction was stopped by adding the Roche cOmplete Protease Inhibitor Cocktail (Roche Molecular Biochemicals, Mannheim, Germany). The bulk of the plasma proteins (but none of the peptide) was precipitated in cold methanol (1:4 (v/v) mixture/MeOH) for 1 h at […]. The precipitated proteins were pelleted by centrifugation at 10,000× g for 10 min at 4 °C. The supernatant containing the peptide was concentrated five times under vacuum and separated by RP-HPLC. The area of the peak (UV absorbance at 205 nm) corresponding to the intact peptide was measured and compared with an equivalent sample incubated in phosphate-buffered saline.

[2] = Pharmacokinetics of HAEE in rat blood after single i.v. bolus (dose dependence, chronic administration); conditions: for Cmax (maximum concentration in the blood) / AUC(0–∞) / T1/2(el) (elimination half-life) / Tmax: rat blood; for Cmax (maximum concentration in the blood): n = 6, sampling 2-30 min; for AUC(0–∞) / T1/2(el) (elimination half-life) / Tmax / ClT (total body clearance) / Kel (elimination rate constant, central compartment) / MRT (residence time) / Vd(c) (volume of distribution in the central compartment at Cmax) / Vd(extrap) / Vd(β) (volume of distribution in the elimination phase): n = 6
Procedure: In experiments on rats (Table 1, experimental groups 2–5), intravenous (i.v.) administration of the peptide and blood sampling were performed through the jugular veins. For this, in rats anesthetized with a mixture of ketamine (91 mg/kg) and xylazine (9.1 mg/kg), on the ventral side, in the area adjacent to the forelimbs and neck, two longitudinal skin incisions about 2.5 cm long were made on the right and left, and the jugular veins were dissected. An intravenous Flexicath G24 catheter (for heparin and peptide administration) (Medica LLC, Ivanovo, Russia) was installed in the left jugular vein and Flexicath G22 (for blood collection) in the right jugular vein. To prevent blood coagulation, 80 μL of heparin (5000 I.U./mL) was injected through the Flexicath G24 port before the injection of the peptide, and after 5 min a mixture of HAEE and [^3H]HAEE (400 μCi, in doses of 50, 300 or 900 μg/kg) in 200 μL of saline solution was injected for 10–15 s. Following that, after 2, 4, 6, 10, 20 and 30 min, approximately 0.3 mL of venous blood was collected into pre-weighed plastic tubes. After collection, the blood tubes were immediately frozen in liquid nitrogen and weighed. Before the pharmacokinetic study, rats in experimental group 5 were injected daily with i.p. peptide HAEE at a dose of 300 μg/kg for 28 days.
(§1) Frozen and weighed tissue samples in plastic tubes were freeze-dried for 48 h. The freeze-dried tissue samples were heated at 65 °C for 30 min, after which they were homogenized, and the peptide fraction was extracted with 90% aqueous acetonitrile containing 1% TFA [13]. To facilitate HPLC analysis of radioactively labeled HAEE and normalize the loss of the peptide during extraction, 10 μg of HAEE was added to the extraction solution for each sample. After centrifugation, the solution containing HAEE and blood components was dried under reduced pressure, stripped with methanol and re-centrifuged. The resulting solution containing a mixture of HAEE and [^3H]HAEE was subjected to evaporation under reduced pressure, re-extraction with 0.1% aqueous TFA solution and subsequent centrifugation. Quantitative analysis of the HAEE peptide was performed using HPLC on a Kromasil C18 column, 4 × 150 mm (Nouryon-Separation Products, Bohus, Sweden) in methanol concentration gradient (12–26% for 13 min), in 0.1% HFBA (heptafluorobutyric acid). The fraction containing the HAEE peptide was collected and its [^3H]HAEE content was determined by liquid scintillation counting. The obtained radioactivity value was normalized to the area of the HAEE peak in the chromatogram (UV absorbance at 220 nm).
(§2) To calculate the pharmacokinetic parameters, we used the values of HAEE peptide concentrations in blood and tissues averaged over three (rabbit) or six (rats and mice) animals. All quantitative values are given as means ± standard deviation. The calculation of pharmacokinetic parameters was performed by combining the model and non-model approaches using the software Borgia 1.03 (NPP Nauka Plus, Rovno, Ukraine) and SigmaPlot 11.0 (Systat Software, San Jose, CA, USA).

rats = experiment: Observation of toxic effects after repeated administration to rats; conditions: administered repeatedly (daily for 28 days, 300 μg/kg)
[3] = system: B6C3-Tg (APPswe, PSEN1-dE9) 85Dbo/j mice; conditions: intravenous injections of HAEE; control animals 14.2 ± 3.1; cited from earlier work
Text: (§3) The tetrapeptide HAEE had been proposed as one of the candidate molecules for inhibiting cerebral amyloidogenesis in AD [7]. This peptide is a synthetic analogue of the 35-His-Ala-Glu-Glu-38 (35-HAEE-38) fragment of the extracellular N-terminal domain of subunit α4 of the α4β2 nAChR. This fragment (conservative for humans, mice and chicken) forms the interface for the interaction of α4β2 nAChR with Aβ [5]. It has been previously shown by molecular modeling methods that this interaction is stabilized by ion bridges between the complementary charged side groups of the H/E and E/H amino acid ...

α4β2 nAChR = conditions: model oocytes, exogenous HAEE; cited from earlier work
Text: as §3

[4] = Distribution of HAEE in mouse tissues after i.p. bolus; assay type: in vivo; conditions: mice, i.p. bolus 300 μg/kg
Procedure: In the experiments on mice (Table 1, experimental group 6), a mixture of HAEE and [^3H]HAEE (50 µCi, at a dose of 300 µg/kg) in 200 µL of saline solution was injected intraperitoneally. The animals were decapitated at the end of the period specified by the protocol; blood and studied tissues were collected in weighed plastic tubes, frozen with liquid nitrogen and weighed. When calculating the volumetric concentrations of the total amount of the HAEE peptide (labeled, unlabeled or their mixture) in the blood, the density of the blood was taken equal to 1.056 g/mL [12].
All quantitative values are given as means ± standard deviation.
Within the study, bioavailability of HAEE for several organs and tissues was analyzed with i.p. bolus administration to mice at a dose of 300 μg/kg. The quantity of HAEE in the blood, brain, kidneys, liver, heart and omentum was determined at 2, 4, 6, 10, 15 and 20 min after peptide administration. For all tissues, similar changes in the concentrations of HAEE over time were observed (Figure 3A–C). These were characterized by a bimodal relationship with peaks at 4 and 10–15 min.
Tissue bioavailability of HAEE for the brain was about 3%, which is typical for most pharmacological substances. […] This may indicate accumulation of HAEE in the brain parenchyma due to its active transfer through the BBB and further binding and retention at the affinity sites of neuronal protein targets.

[5] = Pharmacokinetics of HAEE in rabbit blood after single i.v. bolus; assay type: in vivo
Procedure: In experiments on rabbits (Table 1, experimental group 1), peptide administration and blood sampling were performed through the large ear veins. To restrict movement, the rabbit was placed in a restrainer with a head hole. Into the right ear, through the large ear vein, 4000 IU of heparin (FSUE “Moscow Endocrine Plant”, Moscow, Russia) in 0.8 mL of saline solution was injected using an insulin syringe, and after 5 min a Flexicath G22 intravenous catheter (Medica LLC, Ivanovo, Russia) was installed into the large ear vein of the left ear for subsequent blood sampling.
A 0.5 mL of the mixture of HAEE and [^3H]HAEE (2000 µCi, at a dose of 120 µg/kg) was injected with an insulin syringe into the right ear vein for 10–15 s, and after 2, 4, 6, 10, 20, 30, 60, 90 and 120 min, approximately 0.5 mL of venous blood was collected through the catheter and placed into pre-weighed plastic tubes. Immediately after collection, blood tubes were frozen in liquid nitrogen and weighed.
as §1, §2
Taking this into account, to determine the pharmacokinetic characteristics of HAEE after systemic administration to rabbits, we analyzed the peptide content in the blood for a long period of time, from 2 to 120 min. The peptide was administered i.v. at a dose of 120 μg/kg.

[6] = single i.v. bolus 300 μg/kg after a 28 day course of unlabeled HAEE 300 μg/kg/day
[7] = rat, i.v. bolus, range over doses of 50, 300 and 900 µg/kg
[8] = rat, single i.v. bolus 50 μg/kg
[9] = rat, single i.v. bolus 300 μg/kg after a 28 day course of unlabeled HAEE 300 μg/kg/day
[10] = rat, single i.v. bolus 300 μg/kg
[11] = rat, single i.v. bolus 900 μg/kg
[12] = blood, brain, kidneys, liver, heart, omentum
[13] = rabbit blood, single i.v. bolus 120 μg/kg, n = 3
[14] = rabbit, single i.v. bolus 120 μg/kg, n = 3

Acetyl-His-Ala-Glu-Glu-Amide [HAEE, synthetic tetrapeptide, analogue of the 35–38 region of the α4 subunit of α4β2 nicotinic acetylcholine receptor]
Stability in human plasma (intact peptide peak area vs sample in PBS) [1]: no significant degradation | Cmax (maximum concentration in the blood) ([2]; single i.v. bolus 50 μg/kg HAEE + [3H]HAEE, HPLC + liquid scintillation): 73.9 ng/mL | AUC(0–∞) ([2]; single i.v. bolus 50 μg/kg): 1383 (ng/mL) × min | T1/2(el) (elimination half-life) ([2]; single i.v. bolus 50 μg/kg): 23 min | Tmax ([2]; single i.v. bolus 50 μg/kg): 4 min | Cmax (maximum concentration in the blood) ([2]; single i.v. bolus 300 μg/kg HAEE + [3H]HAEE, HPLC + liquid scintillation): 439 ng/mL | AUC(0–∞) [2, 6]: 12,137 (ng/mL) × min | T1/2(el) (elimination half-life) [2, 6]: 29 min | Tmax [2, 6]: 4 min | Cmax (maximum concentration in the blood) [2, 6]: 444 ng/mL | AUC(0–∞) ([2]; single i.v. bolus 300 μg/kg): 11,340 (ng/mL) × min | T1/2(el) (elimination half-life) ([2]; single i.v. bolus 300 μg/kg): 22 min | Tmax ([2]; single i.v. bolus 300 μg/kg): 4 min | Cmax (maximum concentration in the blood) ([2]; single i.v. bolus 900 μg/kg HAEE + [3H]HAEE, HPLC + liquid scintillation): 1322 ng/mL | AUC(0–∞) ([2]; single i.v. bolus 900 μg/kg): 47,133 (ng/mL) × min | T1/2(el) (elimination half-life) ([2]; single i.v. bolus 900 μg/kg): 25 min | Tmax ([2]; single i.v. bolus 900 μg/kg): 4 min | ClT [2, 7]: 6.7 to 13 mL/min | MRT [2, 7]: 32 to 36 min | T1/2(el) [2, 7]: 22 to 25 min | ClT (total body clearance) [2, 8]: 13.0 mL/min | Kel (elimination rate constant, central compartment) [2, 8]: 0.031 min⁻¹ | MRT (residence time) [2, 8]: 33 min | Vd(c) (volume of distribution in the central compartment at Cmax) [2, 8]: 107 mL | Vd(extrap) [2, 8]: 504 mL | Vd(β) (volume of distribution in the elimination phase) [2, 8]: 425 mL | ClT (total body clearance) [2, 9]: 8.7 mL/min | Kel (elimination rate constant, central compartment) [2, 9]: 0.024 min⁻¹ | MRT (residence time) [2, 9]: 42 min | Vd(c) (volume of distribution in the central compartment at Cmax) [2, 9]: 111 mL | Vd(extrap) [2, 9]: 382 mL | Vd(β) (volume of distribution in the elimination phase) [2, 9]: 362 mL | ClT (total body clearance) [2, 10]: 9.3 mL/min | Kel (elimination rate constant, central compartment) [2, 10]: 0.031 min⁻¹ | MRT (residence time) [2, 10]: 32 min | Vd(c) (volume of distribution in the central compartment at Cmax) [2, 10]: 122 mL | Vd(extrap) [2, 10]: 296 mL | Vd(β) (volume of distribution in the elimination phase) [2, 10]: 299 mL | ClT (total body clearance) [2, 11]: 6.7 mL/min | Kel (elimination rate constant, central compartment) [2, 11]: 0.028 min⁻¹ | MRT (residence time) [2, 11]: 36 min | Vd(c) (volume of distribution in the central compartment at Cmax) [2, 11]: 108 mL | Vd(extrap) [2, 11]: 291 mL | Vd(β) (volume of distribution in the elimination phase) [2, 11]: 237 mL | Effect of chronic administration on accumulation and pharmacokinetics ([2]; rats, 28 days daily 300 μg/kg then i.v. bolus 300 μg/kg, n = 6 vs intact rats n = 6): does not cause its accumulation in rats and does not affect the nature of its pharmacokinetics | Visible toxic effects and abnormalities in animal behavior (rats): did not cause visible toxic effects and abnormalities in animal behavior | Average number of amyloid plaques in a brain section [3]: 5.8 ± 2.1 | Effect on amyloid aggregates formed upon contact with α4β2 nAChR (α4β2 nAChR): are destroyed | AUC(0–20), blood ([4]; blood, 0–20 min, n = 6 per time point, [3H]HAEE): 2110 (ng/g) × min | fT × 100%, brain ([4]; brain): about 3% | AUC(0–20), brain ([4]; brain, 0–20 min, n = 6 per time point): 70 (ng/g) × min | AUC(0–20), heart ([4]; heart, 0–20 min, n = 6 per time point): 845 (ng/g) × min | AUC(0–20), kidney ([4]; kidney, 0–20 min, n = 6 per time point): 3437 (ng/g) × min | AUC(0–20), liver ([4]; liver, 0–20 min, n = 6 per time point): 777 (ng/g) × min | AUC(0–20), omentum ([4]; omentum, 0–20 min, n = 6 per time point): 395 (ng/g) × min | Time of first peak of HAEE concentration in tissues (bimodal relationship) [4, 12]: 4 min | Time of second peak of HAEE concentration in tissues (bimodal relationship) [4, 12]: 10 to 15 min | Cmax (maximum concentration in the blood) ([5]; rabbit blood, single i.v. bolus 120 μg/kg HAEE + [3H]HAEE, n = 3, sampling 2-120 min, HPLC + liquid scintillation): 255 ng/mL | T1/2(el) (elimination half-life) [5, 13]: 20 min | Tmax [5, 13]: 4 min | AUC(0–∞) ([5]; rabbit blood, single i.v. bolus 120 μg/kg, n = 3, 0-4 min by trapezoidal method): 4421 (ng/mL) × min | ClT (total body clearance) [5, 14]: 100 mL/min | Kel (elimination rate constant, central compartment) [5, 14]: 0.035 min⁻¹ | MRT (residence time) [5, 14]: 29 min | Vd(c) (volume of distribution in the central compartment at Cmax) [5, 14]: 862 mL | Vd(extrap) [5, 14]: 3194 mL | Vd(β) (volume of distribution in the elimination phase) [5, 14]: 2860 mL
